# Laboratory results published in PMC3961306, “Comparison of the Cancer Gene Targeting and Biochemical Selectivities of All Targeted Kinase Inhibitors Approved for Clinical Use” (PLoS ONE, 2014).
# Legend:
# Assay in all cases: Kinase profiling in a biochemical assay panel (mobility shift assays and ELISA), %-inhibition at 1 μM; selectivity entropy
# [1] = target: T1, panel of more than 300 wild-type and mutant kinases (313 kinase panel) (Homo sapiens, UniProt P29320)
# T1 sequence (P29320 21-983): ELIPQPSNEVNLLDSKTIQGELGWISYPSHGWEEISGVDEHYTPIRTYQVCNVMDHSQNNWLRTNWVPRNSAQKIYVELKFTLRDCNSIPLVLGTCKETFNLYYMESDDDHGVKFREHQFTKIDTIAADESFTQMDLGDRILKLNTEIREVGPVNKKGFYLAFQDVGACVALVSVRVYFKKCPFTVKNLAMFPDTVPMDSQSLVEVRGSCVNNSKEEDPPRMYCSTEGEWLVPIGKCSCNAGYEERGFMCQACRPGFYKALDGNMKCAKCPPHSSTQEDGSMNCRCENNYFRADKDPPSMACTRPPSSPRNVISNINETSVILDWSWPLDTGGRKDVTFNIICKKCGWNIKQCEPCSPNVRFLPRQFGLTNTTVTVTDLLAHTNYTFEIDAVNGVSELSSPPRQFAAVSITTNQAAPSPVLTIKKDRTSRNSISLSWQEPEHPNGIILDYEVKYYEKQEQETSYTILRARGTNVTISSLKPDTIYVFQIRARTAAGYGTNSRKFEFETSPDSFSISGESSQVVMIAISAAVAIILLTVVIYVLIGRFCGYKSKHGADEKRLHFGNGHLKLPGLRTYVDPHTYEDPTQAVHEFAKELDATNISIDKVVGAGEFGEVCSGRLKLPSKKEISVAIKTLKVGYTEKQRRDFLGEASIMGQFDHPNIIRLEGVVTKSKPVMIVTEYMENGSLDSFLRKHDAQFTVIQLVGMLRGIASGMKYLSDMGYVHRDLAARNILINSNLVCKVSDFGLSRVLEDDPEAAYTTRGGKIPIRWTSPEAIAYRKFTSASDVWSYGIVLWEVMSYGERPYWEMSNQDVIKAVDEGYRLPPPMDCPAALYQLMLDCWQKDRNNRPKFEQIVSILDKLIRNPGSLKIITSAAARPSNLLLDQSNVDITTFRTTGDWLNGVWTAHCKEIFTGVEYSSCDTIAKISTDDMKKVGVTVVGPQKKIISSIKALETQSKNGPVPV
# [2] = target: panel of more than 300 wild-type and mutant kinases (313 kinase panel) (Homo sapiens, UniProt P49759); conditions: kinase CLK1; 1 μM compound
# Chain of panel of more than 300 wild-type and mutant kinases (313 kinase panel) (Homo sapiens, UniProt P49759) (P49759 whole entry, change not shown): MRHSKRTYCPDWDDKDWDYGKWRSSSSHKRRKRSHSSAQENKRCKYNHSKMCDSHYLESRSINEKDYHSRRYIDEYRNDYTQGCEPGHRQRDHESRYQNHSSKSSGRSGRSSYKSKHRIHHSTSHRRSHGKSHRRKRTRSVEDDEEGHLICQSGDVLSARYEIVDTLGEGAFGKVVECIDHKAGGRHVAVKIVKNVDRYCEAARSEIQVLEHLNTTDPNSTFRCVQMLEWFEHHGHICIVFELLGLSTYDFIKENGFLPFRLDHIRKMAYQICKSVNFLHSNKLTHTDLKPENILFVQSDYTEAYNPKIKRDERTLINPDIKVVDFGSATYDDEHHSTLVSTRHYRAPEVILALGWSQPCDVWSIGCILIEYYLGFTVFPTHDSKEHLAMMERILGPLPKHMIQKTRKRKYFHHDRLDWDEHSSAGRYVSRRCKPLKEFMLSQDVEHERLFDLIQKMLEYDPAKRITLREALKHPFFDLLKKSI
# [3] = target: T2, panel of more than 300 wild-type and mutant kinases (313 kinase panel) (Homo sapiens, UniProt Q12851); conditions: kinase MAP4K2; compound at 1 μM
# T2 sequence (Q12851 1-820): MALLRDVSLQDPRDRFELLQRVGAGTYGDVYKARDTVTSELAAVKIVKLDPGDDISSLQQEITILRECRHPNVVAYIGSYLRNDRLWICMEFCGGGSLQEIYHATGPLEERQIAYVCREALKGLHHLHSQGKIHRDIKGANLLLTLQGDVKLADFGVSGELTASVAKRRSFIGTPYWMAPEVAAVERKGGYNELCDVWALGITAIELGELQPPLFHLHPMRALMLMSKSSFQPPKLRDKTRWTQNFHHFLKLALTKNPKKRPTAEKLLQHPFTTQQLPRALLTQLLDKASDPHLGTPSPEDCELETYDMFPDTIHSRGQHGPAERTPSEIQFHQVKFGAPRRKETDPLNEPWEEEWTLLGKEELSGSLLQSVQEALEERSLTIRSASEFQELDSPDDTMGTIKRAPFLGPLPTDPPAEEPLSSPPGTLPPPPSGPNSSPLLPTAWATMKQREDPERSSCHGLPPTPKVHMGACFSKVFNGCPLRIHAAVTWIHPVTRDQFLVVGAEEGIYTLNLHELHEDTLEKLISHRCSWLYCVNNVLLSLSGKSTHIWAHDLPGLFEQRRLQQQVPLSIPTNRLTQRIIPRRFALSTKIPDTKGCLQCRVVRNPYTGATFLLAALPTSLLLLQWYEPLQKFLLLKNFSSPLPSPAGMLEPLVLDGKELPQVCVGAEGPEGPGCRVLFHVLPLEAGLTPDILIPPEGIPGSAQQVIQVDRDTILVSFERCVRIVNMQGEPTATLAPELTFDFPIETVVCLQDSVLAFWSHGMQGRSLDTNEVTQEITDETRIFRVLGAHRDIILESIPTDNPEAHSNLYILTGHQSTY
# [4] = target: panel of more than 300 wild-type and mutant kinases (313 kinase panel) (Homo sapiens, UniProt P04626)
# Chain of panel of more than 300 wild-type and mutant kinases (313 kinase panel) (Homo sapiens, UniProt P04626) (P04626 23-1255, change not shown): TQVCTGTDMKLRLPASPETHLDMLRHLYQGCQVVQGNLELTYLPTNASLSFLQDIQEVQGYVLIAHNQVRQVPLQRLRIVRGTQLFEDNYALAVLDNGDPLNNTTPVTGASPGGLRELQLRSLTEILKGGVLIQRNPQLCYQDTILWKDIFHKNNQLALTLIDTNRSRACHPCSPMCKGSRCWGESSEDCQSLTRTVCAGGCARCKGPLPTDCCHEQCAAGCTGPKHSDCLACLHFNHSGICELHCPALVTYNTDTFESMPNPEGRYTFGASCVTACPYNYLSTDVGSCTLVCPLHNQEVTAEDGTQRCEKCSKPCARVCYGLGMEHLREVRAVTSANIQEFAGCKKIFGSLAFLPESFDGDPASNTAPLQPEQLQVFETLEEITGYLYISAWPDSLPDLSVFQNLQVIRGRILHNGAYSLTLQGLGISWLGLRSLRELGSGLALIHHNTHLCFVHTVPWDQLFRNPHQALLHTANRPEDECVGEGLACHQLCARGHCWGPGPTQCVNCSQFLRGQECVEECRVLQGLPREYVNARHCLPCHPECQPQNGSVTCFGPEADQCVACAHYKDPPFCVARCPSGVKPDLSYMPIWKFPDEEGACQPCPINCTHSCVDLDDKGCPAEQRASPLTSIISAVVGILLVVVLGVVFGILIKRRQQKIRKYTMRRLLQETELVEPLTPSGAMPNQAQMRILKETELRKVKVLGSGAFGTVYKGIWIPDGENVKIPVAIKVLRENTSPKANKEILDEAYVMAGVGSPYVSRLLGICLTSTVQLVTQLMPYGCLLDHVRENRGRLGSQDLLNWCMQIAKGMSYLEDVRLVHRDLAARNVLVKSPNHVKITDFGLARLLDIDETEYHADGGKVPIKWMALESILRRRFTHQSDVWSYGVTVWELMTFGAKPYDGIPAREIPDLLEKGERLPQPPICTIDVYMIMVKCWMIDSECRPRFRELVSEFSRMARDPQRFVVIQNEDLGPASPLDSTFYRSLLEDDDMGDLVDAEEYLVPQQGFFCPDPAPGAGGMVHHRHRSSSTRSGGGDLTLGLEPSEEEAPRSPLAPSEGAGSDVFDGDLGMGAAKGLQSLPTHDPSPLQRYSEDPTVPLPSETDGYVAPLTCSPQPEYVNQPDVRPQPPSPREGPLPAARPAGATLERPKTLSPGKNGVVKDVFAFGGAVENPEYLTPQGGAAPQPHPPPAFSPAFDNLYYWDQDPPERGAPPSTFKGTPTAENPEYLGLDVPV
# [5] = target: T3, panel of more than 300 wild-type and mutant kinases (313 kinase panel) (Homo sapiens, UniProt O00418); conditions: kinase EEF2K; compound at 1 μM
# T3 sequence (O00418 1-725): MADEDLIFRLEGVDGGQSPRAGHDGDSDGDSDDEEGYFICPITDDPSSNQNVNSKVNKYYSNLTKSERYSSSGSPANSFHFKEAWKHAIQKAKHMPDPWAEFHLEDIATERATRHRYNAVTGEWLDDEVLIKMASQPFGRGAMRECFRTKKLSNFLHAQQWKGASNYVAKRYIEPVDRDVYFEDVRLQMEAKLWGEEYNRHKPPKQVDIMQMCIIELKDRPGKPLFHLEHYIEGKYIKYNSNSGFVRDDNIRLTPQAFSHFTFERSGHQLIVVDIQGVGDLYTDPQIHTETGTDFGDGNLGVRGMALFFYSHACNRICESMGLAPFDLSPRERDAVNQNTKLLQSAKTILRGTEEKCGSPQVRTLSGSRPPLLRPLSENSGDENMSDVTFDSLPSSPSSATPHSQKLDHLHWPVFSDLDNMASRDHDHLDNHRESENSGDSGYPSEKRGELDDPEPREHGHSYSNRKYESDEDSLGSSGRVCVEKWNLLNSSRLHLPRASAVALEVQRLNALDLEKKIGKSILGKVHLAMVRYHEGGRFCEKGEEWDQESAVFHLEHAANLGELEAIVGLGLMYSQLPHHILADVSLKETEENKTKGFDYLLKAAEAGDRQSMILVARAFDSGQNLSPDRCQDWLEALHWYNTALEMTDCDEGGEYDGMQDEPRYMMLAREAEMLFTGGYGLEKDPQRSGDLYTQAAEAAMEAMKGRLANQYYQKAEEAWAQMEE
SMILES,"%-inhibition of EPHA3 ([1]; kinase EPHA3, compound at 1 μM) [%]","%-inhibition, CLK1 [2] [%]",%-inhibition of MAP4K2 [3] [%],"%-inhibition of HER2 ([4]; kinase HER2, compound at 1 μM) [%]",%-inhibition of EEF2K [5] [%],%-inhibition of HER2 ([4]; 1 µM) [%],%-inhibition of EPHA3 ([1]; 1 µM) [%]
COc1cc2nccc(Oc3ccc(NC(=O)C4(C(=O)Nc5ccc(F)cc5)CC4)cc3)c2cc1OC [cabozantinib],97,7,35,10,-4.74,,
CCCS(=O)(=O)Nc1ccc(F)c(C(=O)c2c[nH]c3ncc(-c4ccc(Cl)cc4)cc23)c1F [vemurafenib],-7.52,5,43,2,-5,,
CNC(=O)c1cc(Oc2ccc(NC(=O)Nc3ccc(Cl)c(C(F)(F)F)c3)c(F)c2)ccn1 [regorafenib],80,38,46,6.43,-11,,
Cc1ccc(Nc2nccc(N(C)c3ccc4c(C)n(C)nc4c3)n2)cc1S(N)(=O)=O [pazopanib],10,7.57,71,1.07,-3,,
Cc1cn(-c2cc(NC(=O)c3ccc(C)c(Nc4nccc(-c5cccnc5)n4)c3)cc(C(F)(F)F)c2)cn1 [nilotinib],87,81,3.24,,6.34,4.25,
CS(=O)(=O)CCNCc1ccc(-c2ccc3ncnc(Nc4ccc(OCc5cccc(F)c5)c(Cl)c4)c3c2)o1 [lapatinib],,14,11,,-2.58,85,0.372
